Source: ChEMBL document CHEMBL4002586, “Aurone Mannich base derivatives as promising multifunctional agents with acetylcholinesterase inhibition, anti-β-amyloid aggragation and neuroprotective properties for the treatment of Alzheimer's disease” (Eur J Med Chem, 2017)
Active and inactive are the calls of the source. No cut-off for these calls is given here.

Test system: not listed separately
Assay: Metal chelating activity assessed as compound-Cu2+ complex formation at 37.5 uM in presence of CuCl2 after 30 mins by UV-visible spectrophotometric analysis
Assay type: functional
Conditions: not given
For CCN(Cc1ccc(/C=C2\Oc3cc(OC)c(OC)cc3C2=O)cc1O)Cc1ccccc1N(C)C, the Activity was “Active”.

Test system: PC-12
Assay: Neuroprotective activity against H2O2-induced damage in rat PC12 cells assessed as increase in cell viability at 100 uM pretreated for 2 hrs followed by H2O2 challenge measured after 24 hrs by MTT assay
Assay type: functional, cell-based
Conditions: not given
With Cc1c(C)c2c(c(C)c1O)CCC(C)(C(=O)O)O2 (centres undefined) the Activity was “Active”.

Biological target: T1, Amine oxidase [flavin-containing] A (Homo sapiens, UniProt P21397)
T1 sequence (P21397 whole entry): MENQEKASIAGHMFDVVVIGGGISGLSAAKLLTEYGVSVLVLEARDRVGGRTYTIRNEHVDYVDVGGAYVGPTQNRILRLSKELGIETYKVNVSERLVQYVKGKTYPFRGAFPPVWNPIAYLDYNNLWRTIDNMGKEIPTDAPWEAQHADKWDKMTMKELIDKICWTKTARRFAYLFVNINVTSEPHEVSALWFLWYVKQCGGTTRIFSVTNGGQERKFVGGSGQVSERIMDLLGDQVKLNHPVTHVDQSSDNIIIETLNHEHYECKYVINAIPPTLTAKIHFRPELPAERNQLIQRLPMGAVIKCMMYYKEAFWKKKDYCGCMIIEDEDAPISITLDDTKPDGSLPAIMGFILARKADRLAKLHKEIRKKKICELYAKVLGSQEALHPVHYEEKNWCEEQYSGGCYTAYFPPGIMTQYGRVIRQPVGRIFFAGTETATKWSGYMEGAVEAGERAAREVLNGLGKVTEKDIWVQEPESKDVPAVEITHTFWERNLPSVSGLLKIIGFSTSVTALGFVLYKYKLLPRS
Assay: Inhibition of recombinant human MAO-A expressed in baculovirus infected BTI insect cells at 10 uM using kynuramine as substrate incubated for 30 mins by fluorescence assay relative to control
Conditions: 0.5 h
With CCN(Cc1ccc(N(C)C)cc1)Cc1ccc(/C=C2\Oc3cc(OC)c(OC)cc3C2=O)cc1O the inhibition at 10 µM was 6.8%.
Work on COc1cc2c(cc1OC)C(=O)/C(=C/c1ccc(CN3CCN(C)CC3)c(O)c1)O2 yielded an inhibition at 10 µM of 9.2%.
Compound CCN(Cc1ccc(/C=C2\Oc3cc(OC)c(OC)cc3C2=O)cc1O)Cc1ccccc1N(C)C has an inhibition at 10 µM of 15.3%.

Test system: PC-12
Assay: Neuroprotective activity against H2O2-induced damage in rat PC12 cells assessed as reduction in LDH release at 100 uM pretreated for 2 hrs followed by H2O2 challenge measured after 24 hrs
Assay type: functional, cell-based
Conditions: not given
For Cc1c(C)c2c(c(C)c1O)CCC(C)(C(=O)O)O2 (centres undefined), the Activity was “Active”.

Test system: not listed separately
Assay: Antioxidant activity assessed as inhibition of AAPH-induced peroxyl radical generation at 5 uM measured as trolox equivalent preincubated for 15 mins followed by AAPH addition measured every 60 secs for 90 mins by ORAC-FL assay
Assay type: functional
Conditions: not given
In the case of CCN(Cc1ccc(N(C)C)cc1)Cc1ccc(/C=C2\Oc3cc(OC)c(OC)cc3C2=O)cc1O, the Activity is reported as 2.02 equiv.
Work on COc1cc2c(cc1OC)C(=O)/C(=C/c1ccc(CN3CCN(C)CC3)c(O)c1)O2 yielded an Activity of 1.78 equiv.
CCN(Cc1ccc(/C=C2\Oc3cc(OC)c(OC)cc3C2=O)cc1O)Cc1ccccc1N(C)C showed an Activity of 1.56 equiv.

Test system: not listed separately
Assay: Metal chelating activity assessed as compound-Zn2+ complex formation at 37.5 uM in presence of ZnCl2 after 30 mins by UV-visible spectrophotometric analysis
Assay type: functional
Conditions: not given
For CCN(Cc1ccc(/C=C2\Oc3cc(OC)c(OC)cc3C2=O)cc1O)Cc1ccccc1N(C)C, the Activity was “Active”.

Biological target: Acetylcholinesterase (Electrophorus electricus, UniProt O42275)
Sequence (O42275 whole entry): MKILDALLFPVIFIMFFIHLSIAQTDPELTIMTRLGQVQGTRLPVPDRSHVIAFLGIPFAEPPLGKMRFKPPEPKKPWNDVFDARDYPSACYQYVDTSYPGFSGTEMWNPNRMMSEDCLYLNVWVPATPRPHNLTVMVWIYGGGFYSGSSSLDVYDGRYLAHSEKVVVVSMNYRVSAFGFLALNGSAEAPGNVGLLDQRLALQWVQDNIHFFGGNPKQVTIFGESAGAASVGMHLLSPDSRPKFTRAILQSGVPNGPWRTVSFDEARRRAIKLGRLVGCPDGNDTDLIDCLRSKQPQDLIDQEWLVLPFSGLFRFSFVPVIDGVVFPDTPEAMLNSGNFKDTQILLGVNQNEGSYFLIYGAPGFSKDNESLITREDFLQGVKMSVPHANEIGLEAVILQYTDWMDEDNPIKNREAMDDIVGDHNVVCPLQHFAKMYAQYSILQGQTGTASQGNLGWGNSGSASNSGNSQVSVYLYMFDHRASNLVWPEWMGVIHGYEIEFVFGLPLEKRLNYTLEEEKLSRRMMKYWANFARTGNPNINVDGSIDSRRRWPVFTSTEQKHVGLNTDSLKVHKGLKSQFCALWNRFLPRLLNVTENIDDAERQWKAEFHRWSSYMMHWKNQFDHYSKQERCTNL
Assay: Inhibition of Electrophorus electricus AChE using acetylthiocholine iodide as substrate measured after 15 mins by Ellman's method
Conditions: not given
Work on CCN(Cc1ccc(N(C)C)cc1)Cc1ccc(/C=C2\Oc3cc(OC)c(OC)cc3C2=O)cc1O yielded an IC50 of 431 µM.
Compound COc1cc2c(cc1OC)C(=O)/C(=C/c1ccc(CN3CCN(C)CC3)c(O)c1)O2 has an IC50 of 11.9 µM.
CCN(Cc1ccc(/C=C2\Oc3cc(OC)c(OC)cc3C2=O)cc1O)Cc1ccccc1N(C)C gave an IC50 of 6.4 µM.

Test system: not listed separately
Assay: Metal chelating activity assessed as compound-Al3+ complex formation at 37.5 uM in presence of AlCl3 after 30 mins by UV-visible spectrophotometric analysis
Assay type: functional
Conditions: not given
With CCN(Cc1ccc(/C=C2\Oc3cc(OC)c(OC)cc3C2=O)cc1O)Cc1ccccc1N(C)C the Activity was “Active”.

Biological target: T2, Acetylcholinesterase (Rattus norvegicus, UniProt P37136)
T2 sequence (P37136 whole entry): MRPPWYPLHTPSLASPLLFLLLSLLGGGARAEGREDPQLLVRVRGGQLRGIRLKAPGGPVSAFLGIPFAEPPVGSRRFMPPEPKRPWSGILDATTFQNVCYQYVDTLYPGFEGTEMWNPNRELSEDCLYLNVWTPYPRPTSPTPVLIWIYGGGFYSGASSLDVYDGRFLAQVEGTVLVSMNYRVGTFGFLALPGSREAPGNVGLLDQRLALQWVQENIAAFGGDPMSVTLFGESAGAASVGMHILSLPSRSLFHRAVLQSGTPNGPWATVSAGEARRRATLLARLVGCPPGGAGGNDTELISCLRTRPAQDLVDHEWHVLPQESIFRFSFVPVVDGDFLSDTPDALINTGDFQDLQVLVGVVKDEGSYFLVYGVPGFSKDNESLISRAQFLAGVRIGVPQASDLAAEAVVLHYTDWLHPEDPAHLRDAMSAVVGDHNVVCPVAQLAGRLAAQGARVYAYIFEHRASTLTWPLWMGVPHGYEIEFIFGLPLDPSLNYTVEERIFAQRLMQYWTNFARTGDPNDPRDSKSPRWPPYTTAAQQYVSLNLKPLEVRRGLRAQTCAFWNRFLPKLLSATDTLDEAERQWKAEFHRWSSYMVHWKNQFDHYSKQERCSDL
Assay: Inhibition of AChE in rat brain cortex homogenates using acetylthiocholine iodide as substrate in presence of BuChE inhibitor tetraisopropyl pyrophosphoramide measured after 15 mins by Ellman's method
Conditions: not given
For CCN(Cc1ccc(N(C)C)cc1)Cc1ccc(/C=C2\Oc3cc(OC)c(OC)cc3C2=O)cc1O, the IC50 was 288 µM.
For COc1cc2c(cc1OC)C(=O)/C(=C/c1ccc(CN3CCN(C)CC3)c(O)c1)O2, the IC50 was 16.3 µM.
With CCN(Cc1ccc(/C=C2\Oc3cc(OC)c(OC)cc3C2=O)cc1O)Cc1ccccc1N(C)C the IC50 was 7.32 µM.

Biological target: Acetylcholinesterase (Homo sapiens, UniProt P22303)
Sequence (P22303 whole entry): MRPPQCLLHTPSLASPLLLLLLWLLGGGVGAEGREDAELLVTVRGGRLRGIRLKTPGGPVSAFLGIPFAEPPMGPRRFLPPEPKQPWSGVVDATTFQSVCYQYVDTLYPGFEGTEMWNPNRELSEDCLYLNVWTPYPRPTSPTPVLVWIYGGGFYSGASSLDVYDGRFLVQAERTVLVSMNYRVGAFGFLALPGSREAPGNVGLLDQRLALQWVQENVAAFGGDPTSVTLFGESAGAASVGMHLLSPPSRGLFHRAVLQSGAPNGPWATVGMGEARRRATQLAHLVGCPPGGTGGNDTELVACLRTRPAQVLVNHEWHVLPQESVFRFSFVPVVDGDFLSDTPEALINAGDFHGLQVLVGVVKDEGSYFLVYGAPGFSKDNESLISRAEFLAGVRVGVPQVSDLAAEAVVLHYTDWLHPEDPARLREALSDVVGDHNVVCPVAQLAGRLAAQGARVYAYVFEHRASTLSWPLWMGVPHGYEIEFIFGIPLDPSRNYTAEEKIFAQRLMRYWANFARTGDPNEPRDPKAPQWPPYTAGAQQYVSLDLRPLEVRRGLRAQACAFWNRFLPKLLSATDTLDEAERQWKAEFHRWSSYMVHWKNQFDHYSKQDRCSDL
Assay: Inhibition of human erythrocyte AChE using acetylthiocholine iodide as substrate measured after 15 mins by Ellman's method
Conditions: not given
Compound COc1cc2c(cc1OC)C(=O)/C(=C/c1ccc(CN3CCN(C)CC3)c(O)c1)O2 has an IC50 of 14 µM.
Compound CCN(Cc1ccc(/C=C2\Oc3cc(OC)c(OC)cc3C2=O)cc1O)Cc1ccccc1N(C)C has an IC50 of 6.69 µM.

Biological target: Amyloid-beta precursor protein (Homo sapiens) (UniProt P05067)
Sequence (P05067 whole entry, the tested form may be a part): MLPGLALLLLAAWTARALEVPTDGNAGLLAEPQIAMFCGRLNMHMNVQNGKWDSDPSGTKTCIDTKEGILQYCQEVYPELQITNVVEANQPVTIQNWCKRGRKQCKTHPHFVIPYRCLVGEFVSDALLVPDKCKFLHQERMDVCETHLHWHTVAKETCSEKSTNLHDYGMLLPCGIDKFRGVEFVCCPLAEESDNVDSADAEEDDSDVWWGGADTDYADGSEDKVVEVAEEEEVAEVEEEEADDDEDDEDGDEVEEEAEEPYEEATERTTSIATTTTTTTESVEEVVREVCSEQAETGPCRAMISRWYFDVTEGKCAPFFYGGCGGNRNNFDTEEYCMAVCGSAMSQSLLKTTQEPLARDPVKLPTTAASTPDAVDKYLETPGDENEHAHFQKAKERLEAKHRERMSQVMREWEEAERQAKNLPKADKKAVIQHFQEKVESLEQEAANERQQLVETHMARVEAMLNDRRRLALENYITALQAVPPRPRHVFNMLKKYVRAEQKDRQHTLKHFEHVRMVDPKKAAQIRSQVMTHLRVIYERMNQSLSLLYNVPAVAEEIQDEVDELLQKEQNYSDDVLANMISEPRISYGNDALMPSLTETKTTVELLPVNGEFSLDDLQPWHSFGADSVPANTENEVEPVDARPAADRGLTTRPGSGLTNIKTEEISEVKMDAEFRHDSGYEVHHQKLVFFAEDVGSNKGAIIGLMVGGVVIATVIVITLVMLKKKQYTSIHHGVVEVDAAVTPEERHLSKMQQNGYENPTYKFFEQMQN
Assay: Inhibition of self-induced aggregation of HFIP-treated human amyloid beta (1 to 42 residues) at 25 uM after 24 hrs by thioflavin T-based fluorometric assay relative to control
Conditions: not given
With CCN(Cc1ccc(N(C)C)cc1)Cc1ccc(/C=C2\Oc3cc(OC)c(OC)cc3C2=O)cc1O the inhibition was 80.5%.
For COc1cc2c(cc1OC)C(=O)/C(=C/c1ccc(CN3CCN(C)CC3)c(O)c1)O2, the inhibition was 38.6%.
For CCN(Cc1ccc(/C=C2\Oc3cc(OC)c(OC)cc3C2=O)cc1O)Cc1ccccc1N(C)C, the inhibition was 78.3%.

Test system: not listed separately
Assay: Metal chelating activity assessed as compound-Fe2+ complex formation at 37.5 uM in presence of FeSO4 after 30 mins by UV-visible spectrophotometric analysis
Assay type: functional
Conditions: not given
With CCN(Cc1ccc(/C=C2\Oc3cc(OC)c(OC)cc3C2=O)cc1O)Cc1ccccc1N(C)C the Activity was “Active”.

Test system: not listed separately
Assay: Permeability of compound at 100 ug/ml after 18 hrs by PAMPA
Assay type: physicochemical
Conditions: read-out: permeability
For CCN(Cc1ccc(/C=C2\Oc3cc(OC)c(OC)cc3C2=O)cc1O)Cc1ccccc1N(C)C, the Papp at 18 h, 100 ug/ml was 12.2 ×10⁻⁶ cm/s.

Test system: not listed separately
Assay: Metal chelating activity assessed as mole fraction of compound required to show 1:1 stoichiometry for Cu2+-compound complex at 37.5 uM after 30 mins by UV-vis spectrophotometric method
Assay type: functional
Conditions: not given
With CCN(Cc1ccc(/C=C2\Oc3cc(OC)c(OC)cc3C2=O)cc1O)Cc1ccccc1N(C)C the Activity was 0.98 molar ratio.

Biological target: butyrylcholinesterase (BuChE) (Rattus norvegicus, UniProt Q9JKC1)
Sequence (Q9JKC1 whole entry): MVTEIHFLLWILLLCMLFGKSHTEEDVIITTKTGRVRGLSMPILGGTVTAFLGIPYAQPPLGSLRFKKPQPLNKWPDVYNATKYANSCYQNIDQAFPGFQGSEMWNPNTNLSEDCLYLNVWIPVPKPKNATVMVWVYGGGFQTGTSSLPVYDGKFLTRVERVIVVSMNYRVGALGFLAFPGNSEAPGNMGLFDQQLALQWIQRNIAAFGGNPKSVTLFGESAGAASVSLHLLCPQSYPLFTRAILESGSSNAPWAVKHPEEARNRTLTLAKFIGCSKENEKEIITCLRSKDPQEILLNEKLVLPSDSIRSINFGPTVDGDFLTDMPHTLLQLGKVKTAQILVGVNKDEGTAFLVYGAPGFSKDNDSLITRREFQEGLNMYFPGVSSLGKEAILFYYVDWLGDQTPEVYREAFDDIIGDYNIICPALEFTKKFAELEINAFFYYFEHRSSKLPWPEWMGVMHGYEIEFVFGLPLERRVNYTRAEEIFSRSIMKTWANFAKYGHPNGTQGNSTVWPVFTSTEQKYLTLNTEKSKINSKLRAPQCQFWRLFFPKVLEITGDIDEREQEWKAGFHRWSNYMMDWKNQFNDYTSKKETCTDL
Assay: Inhibition of BuChE in rat serum at 50 uM using butyrylthiocholine as substrate measured after 15 mins by Ellman's method relative to control
Conditions: probe butyrylthiocholine
Work on CCN(Cc1ccc(N(C)C)cc1)Cc1ccc(/C=C2\Oc3cc(OC)c(OC)cc3C2=O)cc1O yielded an inhibition at 0.25 h, 50 µM of under 5%.
COc1cc2c(cc1OC)C(=O)/C(=C/c1ccc(CN3CCN(C)CC3)c(O)c1)O2 showed an inhibition at 0.25 h, 50 µM of under 5%.
Work on CCN(Cc1ccc(/C=C2\Oc3cc(OC)c(OC)cc3C2=O)cc1O)Cc1ccccc1N(C)C yielded an inhibition at 0.25 h, 50 µM of 19.6%.

Biological target: T3, Amine oxidase [flavin-containing] B (Homo sapiens, UniProt P27338)
T3 sequence (P27338 whole entry): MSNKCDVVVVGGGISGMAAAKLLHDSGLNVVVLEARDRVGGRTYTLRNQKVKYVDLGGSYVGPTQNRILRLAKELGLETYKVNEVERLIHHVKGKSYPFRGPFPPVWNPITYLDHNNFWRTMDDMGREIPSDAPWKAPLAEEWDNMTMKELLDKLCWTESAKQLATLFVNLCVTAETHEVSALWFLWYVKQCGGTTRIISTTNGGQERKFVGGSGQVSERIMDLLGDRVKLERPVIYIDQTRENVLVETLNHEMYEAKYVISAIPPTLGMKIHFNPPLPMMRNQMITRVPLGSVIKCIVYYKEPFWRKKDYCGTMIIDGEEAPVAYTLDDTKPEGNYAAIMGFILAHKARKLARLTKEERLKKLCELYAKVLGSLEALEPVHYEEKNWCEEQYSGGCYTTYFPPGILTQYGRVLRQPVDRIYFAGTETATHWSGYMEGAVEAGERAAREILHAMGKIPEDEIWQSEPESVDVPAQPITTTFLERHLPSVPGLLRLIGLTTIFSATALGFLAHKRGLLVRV
Assay: Inhibition of recombinant human MAO-B expressed in baculovirus infected BTI insect cells at 10 uM using kynuramine as substrate incubated for 30 mins by fluorescence assay relative to control
Conditions: 0.5 h
CCN(Cc1ccc(N(C)C)cc1)Cc1ccc(/C=C2\Oc3cc(OC)c(OC)cc3C2=O)cc1O gave an inhibition at 10 µM of 19.2%.
Work on COc1cc2c(cc1OC)C(=O)/C(=C/c1ccc(CN3CCN(C)CC3)c(O)c1)O2 yielded an inhibition at 10 µM of 1%.
For CCN(Cc1ccc(/C=C2\Oc3cc(OC)c(OC)cc3C2=O)cc1O)Cc1ccccc1N(C)C, the inhibition at 10 µM was 38.1%.

Test system: not listed separately
Assay: Inhibition of Cu2+-mediated aggregation of human amyloid beta (1 to 42 residues) at 25 uM after 24 hrs by thioflavin T-based fluorometric assay relative to control
Assay type: functional
Conditions: not given
CCN(Cc1ccc(N(C)C)cc1)Cc1ccc(/C=C2\Oc3cc(OC)c(OC)cc3C2=O)cc1O gave an inhibition of 68.5%.
COc1cc2c(cc1OC)C(=O)/C(=C/c1ccc(CN3CCN(C)CC3)c(O)c1)O2 gave an inhibition of 35.1%.
With CCN(Cc1ccc(/C=C2\Oc3cc(OC)c(OC)cc3C2=O)cc1O)Cc1ccccc1N(C)C the inhibition was 72.6%.
